Tests used:
Bcr-Abl [1] = molecular target: T1, Bcr-Abl (Homo sapiens, UniProt P00519+P11274); assay: Cell-based biosensor assay, MRM (LC-MS/MS) detection of biosensor phosphorylation; conditions: for phosphorylated peptide detected by MRM (in words): biosensor 5 min, alone or with imatinib or pervanadate; for phosphorylated peptide detected by MRM (in words) / phosphopeptide, 580-480 transition / unphosphorylated peptide, 540-604 transition / phosphopeptide, 580-604 transition / unphosphorylated peptide, 540-767 transition: 1 µg lysate; for phosphopeptide, 580-480 transition / unphosphorylated peptide, 540-604 transition / phosphopeptide, 580-604 transition / unphosphorylated peptide, 540-767 transition / %phospho: K562, 5 min; for phosphopeptide, 580-604 transition / unphosphorylated peptide, 540-767 transition: transition not chosen for quantitation; for %phospho: from fmol of 580-480 and 540-604
Bcr-Abl [2] = molecular target: T1, Bcr-Abl; assay: Cell-based biosensor assay, Western blot detection (4G10 antiphosphotyrosine / streptavidin); parameters: applied here to the disease-relevant, patient-derived CML model cell line K562; BCR N-terminal portion (fusion partner, human BCR P11274); endogenous in cells; host or cells: K562 (human CML cell line); conditions: 25 µM peptide alone, + 10 µM imatinib (1 h pre-incubation) or + 1 µM pervanadate; 5, 30, 60 min; N = 3
Procedure: Samples of equal protein content (100 µg/lane) were diluted into Laemmli buffer and subjected to SDS-PAGE. Proteins were transferred to nitrocellulose membrane and analyzed by Western blotting. Membranes were split at the 15 kD mark and blocked in 3% milk in TBS-T overnight at 4°C, followed by blotting with the indicated antibodies in 3% milk/TBS-T. The bottom membrane was blotted with: DyLight-649 labeled Streptavidin (1∶1000, ThermoFisher Pierce) to detect total biosensor; 4G10 α-phosphotyrosine antibody to detect the phosphorylated biosensor. […] Signals of immunoblots were visualized using the Odyssey system (LiCOR Biosciences, Lincoln, NE), quantified using densitometry with Quantity One (Bio-Rad), and analyzed with GraphPad Prism software.
We based the peptide biosensor assay for Bcr-Abl/Abl kinase activity on our previously reported methodology, [17], [18] applied here to the disease-relevant, patient-derived CML model cell line K562. […] Lysates were processed as described in the Experimental Procedures, separated by SDS-PAGE and analyzed by Western blot using a two-color LiCOR scanner for quantitative detection of IR-dye labeled secondary antibodies and streptavidin (to measure total peptide signal via the biotinylated residue).

[3] = system: chronic myelogenous leukemia (CML) patients; conditions: CML patients on imatinib; cited from earlier work
Source text: [1] […] Approximately 90% of CML patients achieve initial remission with ...

[4] = biological replicate 1, P, P+G, P+V treatments
[5] = biological replicate 2, P, P+G, P+V treatments
[6] = biological replicate 3, P, P+G, P+V treatments

T1 sequence (P11274+P00519 fused): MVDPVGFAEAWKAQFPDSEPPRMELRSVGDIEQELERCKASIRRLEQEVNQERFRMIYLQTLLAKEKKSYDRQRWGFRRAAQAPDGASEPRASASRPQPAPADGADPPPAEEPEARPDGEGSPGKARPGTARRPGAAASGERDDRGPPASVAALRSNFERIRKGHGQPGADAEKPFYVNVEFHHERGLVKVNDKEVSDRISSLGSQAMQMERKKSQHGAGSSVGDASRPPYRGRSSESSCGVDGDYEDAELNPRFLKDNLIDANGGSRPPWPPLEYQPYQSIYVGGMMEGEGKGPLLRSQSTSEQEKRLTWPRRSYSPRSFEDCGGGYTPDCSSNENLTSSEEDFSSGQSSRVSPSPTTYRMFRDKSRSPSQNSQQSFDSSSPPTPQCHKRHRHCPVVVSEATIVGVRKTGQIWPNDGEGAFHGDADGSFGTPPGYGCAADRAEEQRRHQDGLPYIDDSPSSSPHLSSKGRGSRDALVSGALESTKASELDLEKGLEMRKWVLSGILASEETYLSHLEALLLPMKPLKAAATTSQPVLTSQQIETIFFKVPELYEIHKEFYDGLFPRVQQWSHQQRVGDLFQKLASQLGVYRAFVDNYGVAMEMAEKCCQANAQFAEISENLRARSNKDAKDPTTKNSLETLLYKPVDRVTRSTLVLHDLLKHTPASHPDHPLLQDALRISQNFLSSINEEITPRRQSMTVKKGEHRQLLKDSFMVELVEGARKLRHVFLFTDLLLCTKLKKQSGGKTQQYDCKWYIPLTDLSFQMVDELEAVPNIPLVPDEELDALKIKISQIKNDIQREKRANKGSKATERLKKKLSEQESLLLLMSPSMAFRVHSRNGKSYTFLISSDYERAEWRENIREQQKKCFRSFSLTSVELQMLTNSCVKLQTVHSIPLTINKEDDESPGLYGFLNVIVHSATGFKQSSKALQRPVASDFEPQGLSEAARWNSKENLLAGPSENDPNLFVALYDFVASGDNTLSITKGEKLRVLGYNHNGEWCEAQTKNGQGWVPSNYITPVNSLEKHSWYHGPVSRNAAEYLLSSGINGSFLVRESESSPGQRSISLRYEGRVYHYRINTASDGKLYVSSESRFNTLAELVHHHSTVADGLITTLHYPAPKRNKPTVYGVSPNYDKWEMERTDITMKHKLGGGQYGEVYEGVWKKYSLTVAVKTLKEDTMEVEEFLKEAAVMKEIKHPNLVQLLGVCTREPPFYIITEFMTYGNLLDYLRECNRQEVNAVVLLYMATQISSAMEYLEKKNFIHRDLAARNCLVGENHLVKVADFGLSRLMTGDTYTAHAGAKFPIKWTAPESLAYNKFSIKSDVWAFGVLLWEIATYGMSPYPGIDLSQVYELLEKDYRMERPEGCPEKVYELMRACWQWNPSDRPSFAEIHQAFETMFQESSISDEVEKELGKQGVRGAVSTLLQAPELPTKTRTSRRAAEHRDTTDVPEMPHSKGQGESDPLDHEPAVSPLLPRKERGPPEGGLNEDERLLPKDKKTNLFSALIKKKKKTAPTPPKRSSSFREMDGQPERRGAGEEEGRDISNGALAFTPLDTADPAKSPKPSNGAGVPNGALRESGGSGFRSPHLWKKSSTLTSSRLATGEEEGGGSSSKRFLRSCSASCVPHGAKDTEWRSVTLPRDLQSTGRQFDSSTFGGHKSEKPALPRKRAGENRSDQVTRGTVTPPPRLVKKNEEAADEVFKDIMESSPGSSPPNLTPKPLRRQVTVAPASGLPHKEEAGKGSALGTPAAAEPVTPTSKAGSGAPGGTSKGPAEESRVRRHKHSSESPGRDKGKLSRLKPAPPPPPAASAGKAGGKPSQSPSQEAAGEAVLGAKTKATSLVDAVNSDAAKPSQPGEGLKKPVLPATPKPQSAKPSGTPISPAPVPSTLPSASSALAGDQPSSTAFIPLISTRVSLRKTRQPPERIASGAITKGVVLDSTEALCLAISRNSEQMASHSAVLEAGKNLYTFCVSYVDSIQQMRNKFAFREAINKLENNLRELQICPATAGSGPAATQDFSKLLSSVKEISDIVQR
Procedure for K562 cells: Biosensor peptide from samples generated as described above (in the Cell-based biosensor assay section) was captured using streptavidin-coated MagneSpheres (Promega Corporation, Madison, WI). The beads (20 µl) were prepared by washing with 0.1% Octyl-β-glucoside/PBS (3×150 µl). K562 cell lysates (200 µg total protein) were incubated with the beads on a shaker (600 rpm, 60 min). Beads were captured using a MagnaBot 96-well magnetic capture device (Promega) and washed with 0.1% Octyl-β-glucoside/PBS (3×150 µl) and deionized water (3×150 µl). Peptide was eluted using 15 µL sample buffer (ACN/H2O/TFA, 50%/50%/0.1%). 0.5 µL from each sample was co-spotted with α-cyano-4-hydroxycinnamic acid (10% w/v) containing ammonium dihydrogen phosphate (5 mg/ml), [22] dried and analyzed on a 4800 MALDI-TOF/TOF Analyzer (ABSciex). Selected ions were analyzed by MS/MS (specifying the parent ion mass for selection and CID) and sequenced de novo.
Peptide in lysates was enriched using streptavidin-coated magnetic nanoparticles through the peptide’s biotinylated reporter segment.

EAIYAAPFAKKK(γ-biotin)G-βNpa-GCGGAPTYSPPPPPGGRKKRRQRRRLL [Peptide]
Total (fmol), Peptide only (Bcr-Abl [1]; K562 cells, 25 µM peptide alone, 5 min, unphosphorylated plus phosphorylated, per µg of digested lysate, MRM, mean ±SD of three replicate biological experiments): 28 ± 5 fmol | phosphorylated peptide detected by MRM (in words) (Bcr-Abl [1]; K562 cells): both unphosphorylated and phosphorylated peptides were detected | phosphorylation of the biosensor peptide in K562 cells (Western blot, 4G10) (Bcr-Abl [2]): phosphorylated | site of degradation of the biosensor in cells (K562 cells): C-terminal degradation

pervanadate
Unphospho (fmol), Peptide+pervanadate (Bcr-Abl [1]; K562 cells, 25 µM peptide + 1 µM pervanadate, 5 min, 540→604, per µg of digested lysate, mean ±SD of three replicates): 14 ± 0.6 fmol | Phospho (fmol), Peptide+pervanadate (Bcr-Abl [1]; K562 cells, 25 µM peptide + 1 µM pervanadate, 5 min, 580→480, per µg of digested lysate, mean ±SD of three replicates): 17 ± 12 fmol | % phospho, Peptide+pervanadate (Bcr-Abl [1]; K562 cells, 25 µM peptide + 1 µM pervanadate, 5 min, MRM, mean ±SD of three replicates): 52±16% | Total (fmol), Peptide+pervanadate (Bcr-Abl [1]; K562 cells, 25 µM peptide + 1 µM pervanadate, 5 min, unphosphorylated plus phosphorylated, per µg of digested lysate, mean ±SD of three replicates): 31 ± 13 fmol | phosphorylated peptide detected by MRM (in words) (Bcr-Abl [1]; K562 cells): higher levels | phosphopeptide, 580-480 transition (Bcr-Abl [1]; biological replicate 1, P = peptide alone, P+G = + imatinib, P+V = + pervanadate, corrected AUC x 1/slope): 31.582 fmol | unphosphorylated peptide, 540-604 transition (Bcr-Abl [1]; [4]): 14.1586 fmol | phosphopeptide, 580-604 transition (Bcr-Abl [1]; [4]): 42.5934 fmol | unphosphorylated peptide, 540-767 transition (Bcr-Abl [1]; [4]): 15.6618 fmol | %phospho (Bcr-Abl [1]; [4]): 69.0458% | phosphopeptide, 580-480 transition (Bcr-Abl [1]; [5]): 10.229 fmol | unphosphorylated peptide, 540-604 transition (Bcr-Abl [1]; [5]): 12.9195 fmol | phosphopeptide, 580-604 transition (Bcr-Abl [1]; [5]): 16.5395 fmol | unphosphorylated peptide, 540-767 transition (Bcr-Abl [1]; [5]): 12.6668 fmol | %phospho (Bcr-Abl [1]; [5]): 44.1886% | phosphopeptide, 580-480 transition (Bcr-Abl [1]; [6]): 10.3517 fmol | unphosphorylated peptide, 540-604 transition (Bcr-Abl [1]; [6]): 13.5084 fmol | phosphopeptide, 580-604 transition (Bcr-Abl [1]; [6]): 16.6663 fmol | unphosphorylated peptide, 540-767 transition (Bcr-Abl [1]; [6]): 11.085 fmol | %phospho (Bcr-Abl [1]; [6]): 43.385% | phosphorylation of the biosensor peptide in K562 cells (Western blot, 4G10) (Bcr-Abl [2]): stabilized

Cc1ccc(NC(=O)c2ccc(CN3CCN(C)CC3)cc2)cc1Nc1nccc(-c2cccnc2)n1 [imatinib]
CML patients achieving initial remission with imatinib [3]: Approximately 90% | patients who never respond or develop recurrent and/or resistant disease (relapse within a few years; 1–5 years of starting treatment) [3]: approximately 30% | patients whose remission remains stable for a long period of time [3]: ~70%

— paper PMC3577862, “A Multiple Reaction Monitoring (MRM) Method to Detect Bcr-Abl Kinase Activity in CML Using a Peptide Biosensor” (PLoS ONE, 2013)
